# Results taken from PMC5344539, “Nematode neuropeptides as transgenic nematicides” (PLoS Pathogens, 2017).
# How the values were obtained:
# M. incognita J2s = assay: Plant protection assay, B. subtilis secreting uNLPs; assay type: in vivo, Meloidogyne incognita; settings: Fig 4B; peptide secreted by transgenic B. subtilis culture in tomato invasion arena with 500 J2s; control = 100%; mean
# Experimental: (§1) Tomato seeds were sterilised with 2.5% NaOCl for 15 minutes, washed 5 times in ddH20 and germinated on 0.5% Murashige and Skoog plates at 23°C. […] Invasion assays were performed by mixing 500 pre-treated M. incognita or G. pallida J2s with agar slurry and a single tomato seedling (2 days post germination) in a 6 well plate. Assays were left at 23°C for 24 hours in the case of M. incognita and at 18°C for 24 hours in the case of G. pallida under a 16 hour light and 8 hour darkness cycle. Seedlings were stained using acid fuschin [69] and the number of nematodes within the roots counted. At least five seedlings were used for M. incognita infections assays, with at least 15 seedlings used for G. pallida infections assays (due to increased variation).
# (§2) B. subtilis were grown overnight in LB media containing ampicillin (100 μg/ml) at 37°C with shaking, and harvested in the log phase of growth determined by measuring OD600nm. Five ml of culture at 0.5 OD was spun down and the pellet mixed with 3 ml of agar slurry and 500 J2s from either G. pallida or M. incognita. C. reinhardtii clones were grown at 23°C with shaking, cultures in the log phase were measured at OD750 and 5 ml of culture at 0.5 OD was pelleted by centrifugation. C. reinhardtii pellets were mixed with 3 ml of agar slurry and 500 J2s from either G. pallida or M. incognita. Plant invasion assays were performed as described above. […]
# G. pallida J2s [1] = assay: Plant protection assay, C. reinhardtii secreting uNLPs; assay type: in vivo, Globodera pallida; settings: Fig 4C; peptide secreted by transgenic C. reinhardtii culture in tomato invasion arena with 500 J2s; control = 100%; mean
# Experimental: as §1, §2
# G. pallida J2s [2] = assay: Plant protection assay, B. subtilis secreting uNLPs; assay type: in vivo, Globodera pallida; settings: Fig 4D; peptide secreted by transgenic B. subtilis culture in tomato invasion arena with 500 J2s; control = 100%; mean
# Experimental: as §1, §2
# mixed-stage C. elegans = assay: C. elegans chemotaxis assay (non-target); assay type: in vivo, Caenorhabditis elegans; settings: worms soaked in 100 μM uNLP 24 h, counted after 1 h, 8 replicates
# Experimental: C. elegans wild-type N2 Bristol strain were obtained from the C. elegans Genomics Center and maintained on a Escherichia coli (strain OP50) lawn on nematode growth medium (NGM) agar plates (3 g/l NaCl, 17 g/l agar, 2.5 g/l peptone, 5 mg/l cholesterol, 25 mM KH2PO4 (pH 6.0), 1 mM CaCl2, 1 mM MgSO4) at 20°C [70]. Chemotaxis assays were performed in a 9 cm diameter Petri dish on NGM agar which was split into a positive and negative side with a central ‘dead zone’ of 1.5 cm diameter. 100 mixed-staged C. elegans were washed three times in M9 buffer and soaked in 100 μM PPN uNLP, or M9 vehicle control for 24 hours. 2 μl of 50 mM sodium acetate, 0.5% pyrazine, 0.5% benzaldehyde or 0.5% diacetyl was spotted onto the positive side, 2 μl of ddH20 was spotted onto the negative side. Pyrazine, benzaldehyde and diacetyl volatile attractants were assayed immediately whereas the water soluble sodium acetate was assayed 18 hours following addition to the plate. Assays were maintained in the dark at 20°C, and counted after 1 hour. Eight replicates were conducted for each C. elegans attraction assay.
sequence,measurement,setting,value
"SFDSFTGPGFTGLD [Mi-NLP-15b, predicted unamidated NLP perfectly conserved between M. incognita and G. pallida; synthesised, also secreted from transgenic microbes]",% Invasion,M. incognita J2s,26.63%
same,% Invasion,G. pallida J2s [1],30.95%
same,% Invasion,G. pallida J2s [2],51.98%
same,CI score,"mixed-stage C. elegans; Fig 5A, attractant sodium acetate (50 mM), control 0.4269",0.3142
same,CI score,"mixed-stage C. elegans; Fig 5B, attractant pyrazine (0.5%), control 0.4904",0.4959
same,CI score,"mixed-stage C. elegans; Fig 5C, attractant benzaldehyde (0.5%), control 0.7026",0.7032
same,CI score,"mixed-stage C. elegans; Fig 5D, attractant diacetyl (0.5%), control 0.6638",0.664
